{
  "source": "PubChem BioAssay (NCI)",
  "experiment_in_all_cases": "DTP human tumour cell line panel, 384-well format",
  "key": {"NCI-H522 lung": {"test_system": "NCI-H522 lung"}, "HOP-62 NSCLC": {"test_system": "HOP-62 NSCLC"}, "SK-OV-3 ovarian": {"test_system": "SK-OV-3 ovarian"}, "MOLT-4 leukemia": {"test_system": "MOLT-4 leukemia"}, "TK-10 renal": {"test_system": "TK-10 renal"}, "MCF7 breast": {"test_system": "MCF7 breast"}, "DU-145 prostate": {"test_system": "DU-145 prostate"}, "SR leukemia": {"test_system": "SR leukemia"}, "BT-549 breast": {"test_system": "BT-549 breast"}, "UACC-257 melanoma": {"test_system": "UACC-257 melanoma"}, "NCI/ADR-RES ovarian": {"test_system": "NCI/ADR-RES ovarian"}, "HCT-15 colon": {"test_system": "HCT-15 colon"}, "A549 NSCLC": {"test_system": "A549 NSCLC"}},
  "note": "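GI50: concentration for 50% inhibition of growth. At the TGI there is no net growth.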",
  "data": [
    {"smiles": "Cc1cc([C@H](C)Nc2nccc(N3C(=O)OC[C@@H]3[C@H](C)F)n2)ncc1-c1ccnc(C(F)(F)F)c1", "values": [
      {"measurement": "GI50", "setting": "NCI-H522 lung", "value": 13.5, "unit": "µM"},
      {"measurement": "TGI", "setting": "NCI-H522 lung", "value": 58.7, "unit": "µM"},
      {"measurement": "GI50", "setting": "HOP-62 NSCLC", "value": 54.5, "unit": "µM"},
      {"measurement": "TGI", "setting": "HOP-62 NSCLC", "value": "> 100", "unit": "µM"},
      {"measurement": "GI50", "setting": "SK-OV-3 ovarian", "value": 41.7, "unit": "µM"},
      {"measurement": "TGI", "setting": "SK-OV-3 ovarian", "value": "> 100", "unit": "µM"},
      {"measurement": "GI50", "setting": "MOLT-4 leukemia", "value": 12.5, "unit": "µM"},
      {"measurement": "TGI", "setting": "MOLT-4 leukemia", "value": 25.3, "unit": "µM"},
      {"measurement": "GI50", "setting": "TK-10 renal", "value": 27.8, "unit": "µM"},
      {"measurement": "TGI", "setting": "TK-10 renal", "value": "> 100", "unit": "µM"},
      {"measurement": "GI50", "setting": "MCF7 breast", "value": 25.8, "unit": "µM"},
      {"measurement": "TGI", "setting": "MCF7 breast", "value": "> 100", "unit": "µM"},
      {"measurement": "GI50", "setting": "DU-145 prostate", "value": 41.7, "unit": "µM"},
      {"measurement": "TGI", "setting": "DU-145 prostate", "value": "> 100", "unit": "µM"},
      {"measurement": "GI50", "setting": "SR leukemia", "value": 11.1, "unit": "µM"},
      {"measurement": "TGI", "setting": "SR leukemia", "value": 25.4, "unit": "µM"},
      {"measurement": "GI50", "setting": "BT-549 breast", "value": 28, "unit": "µM"},
      {"measurement": "TGI", "setting": "BT-549 breast", "value": "> 100", "unit": "µM"},
      {"measurement": "GI50", "setting": "UACC-257 melanoma", "value": 16.6, "unit": "µM"},
      {"measurement": "TGI", "setting": "UACC-257 melanoma", "value": 51.1, "unit": "µM"},
      {"measurement": "GI50", "setting": "NCI/ADR-RES ovarian", "value": 16.2, "unit": "µM"},
      {"measurement": "TGI", "setting": "NCI/ADR-RES ovarian", "value": 94.4, "unit": "µM"},
      {"measurement": "GI50", "setting": "HCT-15 colon", "value": 33.9, "unit": "µM"},
      {"measurement": "TGI", "setting": "HCT-15 colon", "value": "> 100", "unit": "µM"},
      {"measurement": "GI50", "setting": "A549 NSCLC", "value": 41.1, "unit": "µM"},
      {"measurement": "TGI", "setting": "A549 NSCLC", "value": "> 100", "unit": "µM"}
    ]}
  ]
}
